{"source": "patent US11377452B2", "about": "“Glutamate transporter activators and methods using same” (DREXEL UNIVERSITY, priority 2017, dated 2022)", "key": {"[1]": {"test_system": "NMDA receptors", "assay": "NMDA-induced calcium response, calcium imaging in cultured cortical neurons", "assay_type": "cell-based, mouse", "conditions": "100 μM NMDA with 3 μM glycine, no Mg2+; AP-V at 40 μM", "method": "To determine whether the compounds have effects on the function of NMDA receptors, calcium imaging recordings from cultured cortical neurons were performed as described previously (Nicolai, et al., 2010, Cell Death Dis. 1:e33).\nPrimary cortical neurons were obtained from the cerebral cortex of neonatal (P1 or P2) C57BL/6 mice, plated at a density of 3000 cells/12 mm round coverslip, and cultured in medium containing Neurobasal A, fetal calf serum (2%), heat-inactivated horse serum (2%), L-glutamax-1 (0.2 mM), and B-27 supplement (2%). Cells were maintained at 37° C. in a humidified atmosphere containing 5% CO2. The calcium imaging experiments were conducted on DIV 1.\nRecordings were performed in living neurons, as described (Xia, et al., 2014, J. Physiol. 592:3443-3461). Briefly, cultured neurons were loaded with a Fura-2 calcium dye in Tyrode's solution containing (in mM) 140 NaCl, 5 KCl, 2 CaCl2, 1 MgCl2, 10 HEPES, and 5.6 glucose. Coverslips were mounted in the imaging chamber (model RC-25, Warner Instruments, Hamden, Conn.) and continuously perfused with Tyrode's solution containing 0.5 μM tetrodotoxin. Images were acquired in 3 s intervals at room temperature (20-22° C.) using an Olympus inverted microscope equipped with a CCD camera (Hamamatsu ORCA-03G, Japan). The fluorescence ratio was determined as the fluorescence intensities excited at 340 and 380 nm with background subtracted. 100 μM NMDA was applied in the presence of 3 μM glycine and in the absence of Mg^2+. The NMDA receptor antagonist AP-V (40 μM) was applied to certify that the result was specifically the NMDA-induced calcium response. Vehicle, GT949, or GT951 was applied, and calcium changes were recorded.\nRecordings were performed in living neurons, as described (Xia, et al., 2014, J. Physiol. 592:3443-3461). Briefly, cultured neurons were loaded with Fura-2 calcium dye in Hank's balanced salt solution (HBSS). 100 μM NMDA was applied in the presence of 3 μM glycine and in the absence of Mg^2+. […] Vehicle, GT949, or GT951 was applied, and calcium currents were recorded."}, "[2]": {"biological_target": "T1, EAAT2 (Homo sapiens, UniProt P43004)", "T1 construct": "expressed in transfected cells; host or cells: COS-7", "T1 sequence (P43004 whole entry)": "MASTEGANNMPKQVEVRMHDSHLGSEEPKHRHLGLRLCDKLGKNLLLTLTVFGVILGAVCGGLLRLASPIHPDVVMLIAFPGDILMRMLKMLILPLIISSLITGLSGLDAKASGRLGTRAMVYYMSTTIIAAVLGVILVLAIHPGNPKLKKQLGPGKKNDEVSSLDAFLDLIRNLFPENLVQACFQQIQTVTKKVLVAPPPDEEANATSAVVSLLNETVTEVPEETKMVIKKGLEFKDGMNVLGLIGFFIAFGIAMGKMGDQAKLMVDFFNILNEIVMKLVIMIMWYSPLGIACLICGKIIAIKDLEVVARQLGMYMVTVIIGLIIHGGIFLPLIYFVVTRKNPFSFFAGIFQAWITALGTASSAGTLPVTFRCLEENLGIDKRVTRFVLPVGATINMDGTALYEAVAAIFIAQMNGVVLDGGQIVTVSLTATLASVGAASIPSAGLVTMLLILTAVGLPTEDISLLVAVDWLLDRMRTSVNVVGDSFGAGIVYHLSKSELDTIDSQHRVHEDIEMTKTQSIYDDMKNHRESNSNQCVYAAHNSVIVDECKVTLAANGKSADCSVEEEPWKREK", "assay": "Dose-response glutamate uptake in COS-7 cells transfected with EAAT2", "assay_type": "cell-based", "conditions": "for kind of modulation of EAAT2 glutamate uptake in dose-response assays: COS-7 cells expressing EAAT2", "description": "(§1) COS-7 cells were maintained in DMEM with 10% fetal calf serum under 5% CO2. Transfection with empty vector pCMV-5 was used to control for the level of endogenous uptake of radiolabeled substrate in each experimental condition. The specificity of the effect of the compounds was investigated in COS-7 cells transiently transfected with glutamate transporter subtypes EAAT1-3 and monoamine transporters hNET (human noradrenaline transporter), hDAT (dopamine transporter), and hSERT (serotonin transporter).\n(§2) For glutamate uptake assays, subconfluent COS-7 cells were transfected with 0.5 μg of plasmid DNA per well using TransIT-LT1 transfection reagent (Mirus Bio LLC, Madison, Wis.) and plated at a density of ˜100 000 cells per well in 24-well tissue culture plates. For monoamine uptake assays, cells were transfected 0.1 μg of DNA per well as above and plated at a density of 10 000 cells per well in 96-wells plates.\nUptake reactions were initiated by the addition of 50 nM ^3H-L-glutamate, serotonin, dopamine, or noradrenaline, as appropriate.\n(§3) All reactions were carried out for 10 min; then, uptake was terminated by removal of solution, followed by two washes with PBSCM. Cells in 24-well plates were lysed with 1% SDS/0.1 M NaOH. Lysate was transferred to scintillation vials containing 3 mL of scintillation fluid, and radioactivity was quantified in an LS 6500 scintillation counter (Beckman Coulter, Brea, Calif.). For 96-well plates, scintillation fluid was added to each well, and the plate was counted in a Wallac M50 microbeta scintillation analyzer."}, "[3]": {"biological_target": "T2, EAAT3 (Homo sapiens, UniProt P43005)", "T2 construct": "expressed in transfected cells; host or cells: COS-7", "T2 sequence (P43005 1-524)": "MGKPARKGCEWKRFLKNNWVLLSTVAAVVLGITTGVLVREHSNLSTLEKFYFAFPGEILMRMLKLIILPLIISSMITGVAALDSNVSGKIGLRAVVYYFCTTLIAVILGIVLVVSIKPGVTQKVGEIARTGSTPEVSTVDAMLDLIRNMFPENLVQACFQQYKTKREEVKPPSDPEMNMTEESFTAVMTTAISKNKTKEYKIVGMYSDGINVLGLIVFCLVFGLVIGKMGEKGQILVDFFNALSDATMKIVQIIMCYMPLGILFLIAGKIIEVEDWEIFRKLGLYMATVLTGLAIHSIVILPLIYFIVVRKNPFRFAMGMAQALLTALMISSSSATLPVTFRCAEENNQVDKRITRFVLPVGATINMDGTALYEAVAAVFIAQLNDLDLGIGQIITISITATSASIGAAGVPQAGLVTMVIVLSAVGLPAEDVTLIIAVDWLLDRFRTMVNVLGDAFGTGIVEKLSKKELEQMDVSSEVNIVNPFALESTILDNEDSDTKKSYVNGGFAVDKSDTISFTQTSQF", "assay": "Dose-response glutamate uptake in COS-7 cells transfected with EAAT3", "assay_type": "cell-based", "description": "as §1, §2\n[…]. […]\nas §3, with “Cells in 24-well plates were lysed with 1% SDS/0.1 M NaOH.” left out"}, "[4]": {"biological_target": "T3, EAAT1 (Homo sapiens, UniProt P43003)", "T3 construct": "expressed in transfected cells; host or cells: COS-7", "T3 sequence (P43003 whole entry)": "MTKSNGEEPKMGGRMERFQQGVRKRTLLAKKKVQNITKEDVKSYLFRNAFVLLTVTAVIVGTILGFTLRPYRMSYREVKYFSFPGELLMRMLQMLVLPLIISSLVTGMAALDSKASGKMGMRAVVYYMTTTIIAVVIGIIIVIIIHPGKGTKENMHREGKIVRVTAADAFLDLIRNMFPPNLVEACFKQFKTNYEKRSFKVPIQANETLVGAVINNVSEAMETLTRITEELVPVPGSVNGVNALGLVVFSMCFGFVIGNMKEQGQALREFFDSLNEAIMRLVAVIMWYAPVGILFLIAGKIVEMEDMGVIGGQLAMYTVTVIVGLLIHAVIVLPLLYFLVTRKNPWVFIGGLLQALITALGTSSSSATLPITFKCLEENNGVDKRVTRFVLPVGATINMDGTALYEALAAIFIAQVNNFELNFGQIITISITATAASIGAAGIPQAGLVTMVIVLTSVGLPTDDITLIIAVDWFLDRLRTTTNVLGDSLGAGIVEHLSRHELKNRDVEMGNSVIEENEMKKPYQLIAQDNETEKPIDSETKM", "assay": "Dose-response glutamate uptake in COS-7 cells transfected with EAAT1", "assay_type": "cell-based", "description": "as §1, §2\n[…]. […]\nas §3, with “Cells in 24-well plates were lysed with 1% SDS/0.1 M NaOH.” left out"}, "[5]": {"biological_target": "T1, EAAT2", "assay": "Kinetic assay of L-glutamate uptake in EAAT2-transfected COS-7 cells", "assay_type": "cell-based", "conditions": "GT949 and GT951 pre-incubated at 1 nM", "description": "as §1, §2\nas §3, with “Cells in 24-well plates were lysed with 1% SDS/0.1 M NaOH.” left out"}, "[6]": {"test_system": "cultured astrocytes", "assay": "Glutamate uptake in cultured astrocytes", "assay_type": "cell-based, rat", "method": "Glia was prepared and cultured according to Shimizu, et al., 2011, J. Visualized Exp. e3257 with modifications. Briefly, cerebral cortices from 2-4 day old Holtzman rat pups were dissected under sterile conditions and placed in 60 mm dishes containing dissection medium (in mM: 16 glucose, 22 sucrose, 135 NaCl, 5 KCl, 1 Na2HPO4, 0.22 KH2PO4, 10 HEPES, pH 7.4, Osmolarity 310+10 mOsm). Tissue was minced with curved scissors and digested in 0.25% trypsin for 15 min. Trypsin activity was ended by transferring tissue pieces to another vial with dissection medium. Tissue was then repeatedly passed through a serological plastic pipette until it was dissociated by trituration in the presence of 60 μg/mL DNase. Cells were pelleted by centrifugation for 15 min at 280 g and resuspended in glia plating medium (90% DMEM, 10% FBS, and 50 μg/mL gentamicin) and transferred to culture flasks kept in a 37° C. incubator (5-10% CO2). After growth for 10 days in vitro (DIV), cells were detached with 0.05% trypsin, centrifuged, and plated at a density of 10 000 cells/well in polylysine-coated 96-well plates. Plates were grown for 14 DIV before uptake assays were performed.\nAssays were performed as described (Timple, et al., 2013, J. Nat. Prod. 76:1889-1895). Briefly, using an Elx50 Biotek plate washer (Winooski, Vt., USA), cells were washed in PBS-CM buffer. For dose-response assays, vehicle and several concentrations of the compounds (0.01 nM to 1 μM) were added and incubated for 10 min at 37° C. Uptake assays were initiated by addition of 50 nM L-[^3H]-glutamate, and incubation was carried on for 10 min at room temperature. Nonspecific uptake was obtained in the presence of 10 μM DL-TBOA.\nReactions were finished by washing the plates twice with PBS-CM and the addition of 100 μL of scintillation fluid to each well. Radioactivity was counted in a microplate scintillation and luminescence counter (Wallac, Shelton, Conn., USA)."}}}
{"compound": "C=CCN1CC(c2nc3ccccc3n2CCCCOc2ccc(Cl)c(C)c2)CC1=O", "note": "(stereo not drawn) [GT939, 1-allyl-4-(1-(4-(4-chloro-3-methylphenoxy)butyl)-1H-benzo[d]imidazol-2-yl)pyrrolidin-2-one]", "values": [{"measurement": "effect on NMDA-induced calcium response", "setting": "[1]", "value": "no effects"}, {"measurement": "kind of modulation of EAAT2 glutamate uptake in dose-response assays", "setting": "[2]", "value": "PAMs"}, {"measurement": "EC50", "setting": "[2]; COS-7 cells transfected with EAAT2, compound 10 min 37 °C, 50 nM 3H-L-glutamate, mean±SEM, read-out: EC50 (ED50) of enhancement of EAAT2-mediated glutamate transport", "value": "0.7 ± 0.2", "unit": "nM"}, {"measurement": "effect on EAAT3-mediated glutamate transport", "setting": "[3]", "value": "no effect"}, {"measurement": "effect on EAAT1-mediated glutamate transport", "setting": "[4]", "value": "no effect"}, {"measurement": "effect on Vmax of transport", "setting": "[5]", "value": "increased Vmax"}]}
{"compound": "C=CCN1CC(c2nc3ccccc3n2CCCOc2ccc(C(C)CC)cc2)CC1=O", "note": "(stereo not drawn) [GT922, 1-allyl-4-(1-(3-(4-(sec-butyl)phenoxy)propyl)-1H-benzo[d]imidazol-2-yl)pyrrolidin-2-one]", "values": [{"measurement": "kind of modulation of EAAT2 glutamate uptake in dose-response assays", "setting": "[2]", "value": "inhibitors"}]}
{"compound": "O=C(c1ccc(S(=O)(=O)N2CCCC2)cc1)N1CCN(c2nc(-c3ccccc3)nc3sc4c(c23)CCC4)CC1", "note": "[GT988, (4-(2-phenyl-6,7-dihydro-5H-cyclopenta [4,5]thieno[2,3-d]pyrimidin-4-yl)piperazin-1-yl)(4-(pyrrolidin-1-ylsulfonyl)phenyl) methanone]", "values": [{"measurement": "kind of modulation of EAAT2 glutamate uptake in dose-response assays", "setting": "[2]", "value": "no effect"}]}
{"compound": "COc1ccc(C2C(C#N)=C(N)OC3=C2C(=O)CC(c2cccc4ccccc24)C3)cc1", "note": "(stereo not drawn) [UCPH-101, 2-Amino-5,6,7,8-tetrahydro-4-(4-methoxyphenyl)-7-(naphthalen-1-yl)-5-oxo-4H-chromene-3-carbonitrile, reference compound]", "values": [{"measurement": "inhibition of glutamate uptake in cultured glial cells by selective EAAT inhibitors", "setting": "[6]; 50 nM 3H-L-glutamate", "value": "partial inhibition"}]}
{"compound": "C=CCN1CC(c2nc3ccccc3n2CCCCOc2ccc(C)c(C)c2)CC1=O", "note": "(stereo not drawn) [GT938, 1-allyl-4-(1-(4-(3,4-dimethylphenoxy)butyl)-1H-benzo[d]imidazol-2-yl)pyrrolidin-2-one]", "values": [{"measurement": "kind of modulation of EAAT2 glutamate uptake in dose-response assays", "setting": "[2]", "value": "inhibitors"}]}
{"compound": "Cc1ccc(C)c2[nH]c(=O)c(C(c3nnnn3CCc3ccccc3)N3CCN(Cc4ccc5c(c4)OCO5)CC3)cc12", "note": "(stereo not drawn) [GT867, 3-((4-(benzo[d][1,3]dioxol-5-ylmethyl)piperazin-1-yl)(1-phenethyl-1H-tetrazol-5-yl)methyl)-5,8-dimethylquinolin-2(1H)-one]", "values": [{"measurement": "kind of modulation of EAAT2 glutamate uptake in dose-response assays", "setting": "[2]", "value": "no effect"}]}
{"compound": "Cc1cc(C)c2cc(C(c3nnnn3CCc3ccccc3)N3CCN(C(=O)c4ccco4)CC3)c(=O)[nH]c2c1", "note": "(stereo not drawn) [GT996, 3-((4-(furan-2-carbonyl)piperazin-1-yl)(1-phenethyl-1H-tetrazol-5-yl)methyl)-5,7-dimethylquinolin-2(1H)-one]", "values": [{"measurement": "modulation of glutamate transport in cultured astrocytes", "setting": "[6]; cultured rat astrocytes, negative control", "value": "inactive"}]}
{"compound": "COc1ccc2[nH]c(=O)c(C(c3nnnn3CCc3ccccc3)N3CCN(c4cccc(C(F)(F)F)c4)CC3)cc2c1", "note": "(stereo not drawn) [GT951, 6-methoxy-3-((1-phenethyl-1H-tetrazol-5-yl)(4-(3-(trifluoromethyl)phenyl)piperazin-1-yl)methyl)quinolin-2(1H)-one]", "values": [{"measurement": "effect on NMDA-induced calcium response", "setting": "[1]", "value": "no effects"}, {"measurement": "EC50", "setting": "[6]; Rattus norvegicus, Astrocyte, cultured rat astrocytes, 50 nM 3H-L-glutamate, read-out: potency (EC50) of glutamate uptake enhancement in cultured astrocytes", "value": "0.3 ± 0.2", "unit": "nM"}, {"measurement": "efficacy of augmentation of glutamate transport in cultured astrocytes", "setting": "[6]; cultured rat astrocytes", "value": "~27", "unit": "%"}, {"measurement": "effect on EAAT3-mediated glutamate transport", "setting": "[3]", "value": "no effect"}, {"measurement": "effect on EAAT1-mediated glutamate transport", "setting": "[4]", "value": "no effect"}]}
{"compound": "NC(CCCP(=O)(O)O)C(=O)O", "note": "(racemic) [AP-V, (DL)-2-amino-5-phosphonovaleric acid, reference compound]", "values": [{"measurement": "effect on NMDA-induced calcium response", "setting": "[1]", "value": "drastically attenuated"}]}
